Source: publication PMC8518382, “Identification of a Bromodomain‐like Region in 15‐Lipoxygenase‐1 Explains Its Nuclear Localization” (Angewandte Chemie (International Ed. in English), 2021)
“And” between values parts separate entries of the source, which are not always exact repeats. Equal entries are not always repeated.

Assays:
[1] = molecular target: T1, 15-LOX-1 (Homo sapiens, UniProt P16050); test: 15-LOX-1 activity assay, UV-absorbance change for linoleic acid conversion; type: biochemical; parameters: His-tag (N); made in house; host or cells: E. coli BL21(DE3); details: for Hill-slope: linoleic acid conversion assay; for IC50: 10 min pre-incubation at RT, 25 µM linoleic acid, absorbance 234 nm
T1 sequence (P16050 1-662): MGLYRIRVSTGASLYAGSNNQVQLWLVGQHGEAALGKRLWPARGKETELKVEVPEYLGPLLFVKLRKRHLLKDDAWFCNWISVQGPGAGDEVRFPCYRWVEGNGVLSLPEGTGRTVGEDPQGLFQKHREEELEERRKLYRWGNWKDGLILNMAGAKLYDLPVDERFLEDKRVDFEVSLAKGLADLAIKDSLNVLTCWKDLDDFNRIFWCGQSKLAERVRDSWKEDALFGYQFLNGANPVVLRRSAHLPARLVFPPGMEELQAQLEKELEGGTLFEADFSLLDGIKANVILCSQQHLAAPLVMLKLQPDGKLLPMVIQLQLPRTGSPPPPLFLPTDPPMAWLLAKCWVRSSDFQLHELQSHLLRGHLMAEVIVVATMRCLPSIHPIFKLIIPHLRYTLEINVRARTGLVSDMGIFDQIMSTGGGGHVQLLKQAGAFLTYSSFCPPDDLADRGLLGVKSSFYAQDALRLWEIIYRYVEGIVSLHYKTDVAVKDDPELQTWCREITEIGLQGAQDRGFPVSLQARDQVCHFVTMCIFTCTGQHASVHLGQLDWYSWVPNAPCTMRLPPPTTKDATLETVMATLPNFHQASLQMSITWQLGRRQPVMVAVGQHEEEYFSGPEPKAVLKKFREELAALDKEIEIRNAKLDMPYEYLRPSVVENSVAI
Source text: In brief, an alkyne‐alcohol was linked to propargyl halide (Cl or Br) using a CuI‐catalyzed Sonogashira cross‐coupling reaction followed by biotinylation of the alcohol using EDCI and HOBt as reagents to provide the desired biotinylated bis‐alkyne probes. The biotinylated bis‐alkynes were subjected to 15‐LOX‐1 binding studies using a 15‐LOX‐1 activity assay based on the UV‐absorbance change for linoleic acid conversion (Figure 1 a). […] Next, we evaluated the effect of the extension of the terminal ethyl substitution of inhibitor 1. […]
empty plasmid was proceed with the same procedure, which lysate was used as the negative control (referred as BL21 control later) in 15-LOX-1 recombinant enzyme inhibition studies.
1.3. Purification of recombinant human 15-LOX-1
The 15-LOX-1 with N-terminal his-tag was produced as described above. After removing the cell debris, the supernatant containing 15-LOX-1 was loaded on a Ni-NTA column (Qiagen, Hilden, Germany) pre-equilibrated with LOX lysis buffer. The column was washed twice with 30 column volume of LOX lysis buffer, and once with 30 column volume of wash buffer (25 mM HEPES, 300 mM NaCl, 25 mM Imidazole, pH 8.0). Later, the 15-LOX-1 was eluted twice with 2 column volume of elution buffer (25 mM HEPES, 300 mM NaCl, 250 mM Imidazole, pH 8.0), followed by desalting with a PD-10 column (Sigma-Aldrich) with LOX storage buffer (25 mM HEPES, 20% Glycerol, pH 7.5). The desalted 15-LOX-1 was further purified and concentrated with Vivaspin Turbo 15 (30.000 MWCO). The protein concentration was determined by Nanodrop spectrophotometry. The 100 μl aliquots of 15-LOX-1 were stored at -20 for further experiments.
15-LOX-1 recombinant enzyme inhibition assay
The 15-LOX-1 inhibition assay has been detailed previously. Briefly, the conversion of linoleic acid to hydroperoxy-(9Z,11E)-octadecadienoic acid (λmax of 234 nm) was used to determine the activity of the 15-LOX-1 enzyme. The conversion rate was the slope of UV-absorbance at 234 nm overtime at the […]
To determine the IC50 of probes, the cell lysate was pre-diluted in LOX assay buffer at a ratio of 1:160. The inhibition assay was done in an F-bottom UV-STAR 96-well plate, in which 50 µl of the diluted enzyme was incubated with 140 µl of a probe diluted in LOX assay buffer for 10 min at room temperature (RT). Later 10 µl of 500 µM linoleic acid dissolved in ethanol was added to the plate to reach a final concentration of 25 µM. The UV-absorbance at 234 nm was determined by a BioTek Synergy H1 plate reader (BioTek, Winooski, VT, USA) . The slope of the 15-LOX-1 sample untreated with the probe was set as 100%, while the slope of the BL21 control sample was set as 0%.
For the determination of enzyme kinetics, a series concentration of linoleic acid was used. Fifty µl of pre-diluted 15-LOX-1 enzyme was incubated with 140 µl of probe solution at a fixed concentration for 10 min at RT. Subsequently, 10 µl of a series concentration of linoleic acid was added to a final concentration ranging from 10 µM to 100 µM. The conversion rate was calculated as the same as […]
described in the IC50 determination assay. Michaelis-Menten plots, Lineweaver-Burk plots, Km, and Vmax, are generated using GraphPad Prism 8.3.0. […]

[2] = molecular target: T1, 15-LOX-1; test: ABP-based ELISA assay with recombinant 15-LOX-1 (inhibition of Labelox B labeling); type: biochemical; parameters: His-tag (N); made in house; host or cells: E. coli BL21(DE3)
Experimental: A549 cell lysate was treated with a serial dilution of the respective inhibitor. Subsequently, samples were labeled by treatment with 1 μM of Labelox B for 1 min. […] Data are mean±s.d., n≥3 independent experiments. […]
1.6. Immunoblotting Analysis […]
1.7. ABPP-based LOX inhibitor specificity validation
A549 cells were lysed by RIPA buffer supplemented with 1x PIC. After sonication and centrifugation, the supernatant was collected, and the protein concentration was determined by a Pierce BCA Protein Assay Kit (Thermo Fisher Scientific, USA). The lysates were then diluted with PBS to 300 ng/µl and stored in -20°C. To label endogenous LOXs with Labelox B under the competition condition, 180 µl diluted lysates were incubated with 200 µl different LOX inhibitor solution (in PBS) with desired concentrations for 18 min to inhibit LOXs activity. Later, 20 µl of a 20 µM Labelox B (in PBS) was added and incubated shortly for 2 min, followed by adding 50 µl of a 0.5 M EDTA to stop the labeling reaction. The reaction mixture was 450 µl in total. Inhibitors and Labelox B were absent in positive and […]
negative control, respectively. To detect the competition labeling of Labelox B among different LOXs, a high-binding 96-well plate (Greiner, #M4561) was coated with 5-LOX (#ab169755, Abcam), 12-LOX […]
(1:500 dilution in PBS) for overnight at 4°C. After washing triply with 0.05%PBST, the plate was blocked with 2% (w/v) BSA in PBST. Subsequently, 100 µl of each reaction mixture was added to the LOX-

Question: `O=c1cc(-c2ccccc2)oc2cc(O)c(O)c(O)c12` [Baicalein] was tested. Which Hill-slope [1] did it give?
Answer: much higher

Question: What about the Hill slope [2] of the same molecule?
Answer: lower than 1

Question: With `CCCCCC#CCC#CCOC(=O)CCCC[C@@H]1SC[C@@H]2NC(=O)N[C@@H]21` [Labelox B (3)] as the molecule, how does the IC50 [1] read?
Answer: 0.62 µM and 0.6 µM

Question: And the “Mode of inhibition (Lineweaver–Burk plots)” value ([1]; Km constant, Vmax decreases with inhibitor concentration)?
Answer: non‐competitive LOX inhibition

Question: Which IC50 [1] does the source give for `c1ccc2c(c1)SCc1c-2[nH]c2ccccc12` [PD146176] here?
Answer: ~4 µM

Question: And the Hill-slope [1]?
Answer: 1

Question: And the Hill slope [2]?
Answer: around 1

Question: What about the IC50 ([2]; read-out: IC50 for attenuation of Labelox B mediated labeling) of the same molecule?
Answer: ~15 µM and 15 µM
